The target in one test is T1, CSK (Homo sapiens, UniProt P41240).
T1 construct: endogenous in cells; host or cells: HL60 lysate
Kind of test: PamChip tyrosine kinase microarray, CSK. The class given is biochemical. The conditions noted are these: 4e 0.1 µM, HL60 lysate. How it is done: (§1) The changes in kinase activities induced by treatment with 4e were monitored within the HL60 cell lines using PamGene’s (Hertogenbosch, Netherlands) PamChip® peptide microarray profiler, which quantifies the activities of 144 tyrosine kinases (YK) ([29], [30]) (Figure 7). Results are provided as a log fold change (LFC) heatmap and Mean Kinase Statistic. From the LFC it is apparent that compound 4e, at a concentration of 0.1 µM, induced sizable changes to the activity of several kinases within the cell signaling YK profile (Figure 7A).
(§2) An Upstream Kinase tool was used to generate a putative list of kinases responsible for phosphorylating the phospho-sites on the PamChip (Figure 7B) ([31]). It is an interpretation and is highly dependent on the contents of the underlying phosphorylation databases. A Kinase Score was used for ranking kinases based on their significance and specificity in terms of the set of peptides used for the corresponding kinase. Kinase Statistics indicates the overall change of the peptide set that represents the kinase. Kinase statistics value <0 indicates lower kinase activity in the compound spiked lysate and vice versa ([32], [33]). Table 5 lists the 20 most changed kinases within treated HL60 cell lysates by 0.1 μM 4e, ranked according to their Kinase Score.
(§3) The compound 4e was spiked into HL60 cell lysate at different concentrations (0.001, 0.01, 0.1, 1, 10 and 50 μM). In addition, DMSO was also spiked in HL60 lysate at low concentration (2% v/v) as control. Samples were profiled on PamGene’s Tyrosine Kinase (PTK) arrays in technical replicates, covering a total of 196 phosphorylation sites. Frozen HL60 cultured cell pellet was sent to PamGene. At PamGene, cells were lysed using a lysis buffer and proteases inhibitors cocktail. Protein concentration was measured using standard Bradford assay as per PamGene SOPs. These lysates were further used for generating the PTK activity profiles. For spiking, 4e was received as powder form and dissolved in DMSO at PamGene facility followed by storing at -20°C in small aliquots. PamGene used its in-house bioinformatics toolbox in combination with other methods to generate hypotheses of signaling pathways.

The next test has as its target T2, Fes (Homo sapiens, UniProt P07332).
T2 construct: endogenous in cells; host or cells: HL60 lysate
The test is described as follows: PamChip tyrosine kinase microarray, Fes. The conditions noted are these: 4e 0.1 µM, HL60 lysate. In kind it is biochemical. How it is done: as §1, §2, §3

The next test deals with T3, Srm (Homo sapiens, UniProt Q9H3Y6).
T3 construct: endogenous in cells; host or cells: HL60 lysate
T3 sequence (Q9H3Y6 whole entry): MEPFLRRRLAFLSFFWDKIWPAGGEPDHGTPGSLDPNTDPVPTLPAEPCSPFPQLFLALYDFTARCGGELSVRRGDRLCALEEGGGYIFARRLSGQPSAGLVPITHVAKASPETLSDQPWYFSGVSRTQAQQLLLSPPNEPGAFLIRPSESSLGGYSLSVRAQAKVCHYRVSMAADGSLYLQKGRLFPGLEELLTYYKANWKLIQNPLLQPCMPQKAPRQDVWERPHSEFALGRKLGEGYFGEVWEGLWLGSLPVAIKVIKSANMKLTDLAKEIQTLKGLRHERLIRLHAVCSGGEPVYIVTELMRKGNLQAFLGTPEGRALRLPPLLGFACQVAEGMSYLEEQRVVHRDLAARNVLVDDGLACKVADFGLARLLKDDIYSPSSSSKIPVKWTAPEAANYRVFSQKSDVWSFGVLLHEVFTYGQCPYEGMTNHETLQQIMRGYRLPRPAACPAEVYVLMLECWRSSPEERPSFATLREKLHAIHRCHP
Kind of test: PamChip tyrosine kinase microarray, Srm. In kind it is biochemical. Conditions: 4e 0.1 µM, HL60 lysate. How it is done: as §1, §2, §3

In another test the test system is CREB. The test is described as follows: Human phosphokinase array, CREB. The class given is cell-based. The text has this: The kinome tree representation (Figure 7C), which was generated by raising the Kinase Score cut-off to >1.2, confirmed that, unlike tirbanibulin and our prototype molecule KX1-136, 4e’s effects were more observable on kinases other than the Src family such as the Eph and TEC families. […] Therefore, we screened compound 4e using the Human Phospho-Kinase Array® kit from R&D systems (Minneapolis, MN, USA). In this system, 35 phosphorylated YK and serine-threonine kinase (STK) enzymes in the untreated (control) and treated (test) HL60 cell lysates were captured on nitrocellulose membrane, pre-spotted with phosphokinase-specific capture antibodies, and then visualized by detection antibody cocktails (Figure 8). The difference in the spot intensity between untreated (control) and treated cells is proportional to change in the amount of the phosphorylated protein induced by 4e.
The phosphorylation profile of 48 kinases was performed using the Proteome Profiler Human Phospho-Kinase Antibody Array Kit by R&D Systems (Minneapolis, MN, USA) according to the protocol. Briefly, the total cellular protein was extracted using the Lysis buffer and was quantified using Bio-Rad DC Protein Assay kit (Hercules, CA, USA). Nitrocellulose membrane set (A&B), pre-spotted with kinase-specific capture antibodies, were first blocked with Array Buffer-1 at RT for 30 min on a rocking platform shaker. Approximately 600 µg of protein concentrate was diluted in the buffer provided and was added onto the membrane set, and the membranes were incubated overnight at 4°C in an 8-well plate. Subsequently, membranes were washed with Wash Buffer and incubated with appropriate Detection Antibody cocktails for 2 h at RT. Streptavadin-HRP (1:2000) was added onto membranes and incubated for 30 min at RT. Membranes were washed, and Chemiluminescent Detection Reagents 1&2 were applied in equal volumes for detection. The signals were detected on C-DiGit®Blot Scanner (LI-COR, Odyssey Imaging Systems, Lincoln, Nebraska, USA) using Image Studio 5.0 software.

In another test the test system is Ron. Kind of test: PamChip tyrosine kinase microarray, Ron. The class given is biochemical, human. Conditions: 4e 0.1 µM, HL60 lysate. How it is done: as §1, §2, §3
A further test has as its system purified bovine tubulin. The test is described as follows: Tubulin polymerization assay (turbidimetric). In kind it is biochemical. The conditions noted are these: theoretical concentration 10 µM, OD 340 nm, 60 min. How it is done:
The effect of compound 4e on tubulin polymerization was investigated using the cell-free assay which assesses the assembly of purified bovine tubulin by a turbidometric method (Figure 5). Tubulin polymerization results in increased turbidity, which is measured as an increase in the optical density (OD).
Figure 5 Tubulin polymerization assay for compound 4e at 10 µM compared to paclitaxel (10 µM) and KX2-391 (10 µM) as references, while DMSO (1% v/v) was used as a vehicle control. Purified bovine tubulin and GTP were mixed in a 96-well plate. The polymerization reaction was initiated by warming the solution from 4°C to 37°C. The effect on tubulin assembly was monitored by measuring the optical density (OD) at 340 nm every 30 seconds over 60 min period. The results represent the mean for three separate experiments.
The assembly of purified bovine tubulin was monitored using the Tubulin Polymerization Assay kit, BK006 (Cytoskeleton Inc., Denver, CO, USA). The assay was carried out in accordance with the manufacturer’s instructions in the assay kit manual using the standard assay conditions. The values reported represent the average values from two independent assays. […] Therefore, tubulin assembly was monitored turbidimetrically at 340 nm at 37°C in a Spectramax 340 PC spectrophotometer (Molecular Devices, Sunnyvale, CA, USA). The absorbance was measured at 30 s intervals for 60 min.

Where “and” joins values, the source holds several entries; their conditions need not be identical. Equal values may be shown once.

T1 sequence (P41240 whole entry): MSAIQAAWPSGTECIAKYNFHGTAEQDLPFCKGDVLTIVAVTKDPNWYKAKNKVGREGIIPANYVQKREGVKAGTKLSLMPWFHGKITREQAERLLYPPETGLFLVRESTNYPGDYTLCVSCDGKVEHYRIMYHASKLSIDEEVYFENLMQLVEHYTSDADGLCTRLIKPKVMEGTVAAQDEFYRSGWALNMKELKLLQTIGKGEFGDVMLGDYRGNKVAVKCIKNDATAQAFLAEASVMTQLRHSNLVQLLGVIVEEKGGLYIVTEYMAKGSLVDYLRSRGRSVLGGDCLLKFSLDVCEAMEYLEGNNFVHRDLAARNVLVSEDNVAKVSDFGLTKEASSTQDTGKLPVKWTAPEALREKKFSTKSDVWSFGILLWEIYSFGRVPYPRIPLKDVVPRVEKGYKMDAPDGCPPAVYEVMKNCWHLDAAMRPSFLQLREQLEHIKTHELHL
T2 sequence (P07332 whole entry): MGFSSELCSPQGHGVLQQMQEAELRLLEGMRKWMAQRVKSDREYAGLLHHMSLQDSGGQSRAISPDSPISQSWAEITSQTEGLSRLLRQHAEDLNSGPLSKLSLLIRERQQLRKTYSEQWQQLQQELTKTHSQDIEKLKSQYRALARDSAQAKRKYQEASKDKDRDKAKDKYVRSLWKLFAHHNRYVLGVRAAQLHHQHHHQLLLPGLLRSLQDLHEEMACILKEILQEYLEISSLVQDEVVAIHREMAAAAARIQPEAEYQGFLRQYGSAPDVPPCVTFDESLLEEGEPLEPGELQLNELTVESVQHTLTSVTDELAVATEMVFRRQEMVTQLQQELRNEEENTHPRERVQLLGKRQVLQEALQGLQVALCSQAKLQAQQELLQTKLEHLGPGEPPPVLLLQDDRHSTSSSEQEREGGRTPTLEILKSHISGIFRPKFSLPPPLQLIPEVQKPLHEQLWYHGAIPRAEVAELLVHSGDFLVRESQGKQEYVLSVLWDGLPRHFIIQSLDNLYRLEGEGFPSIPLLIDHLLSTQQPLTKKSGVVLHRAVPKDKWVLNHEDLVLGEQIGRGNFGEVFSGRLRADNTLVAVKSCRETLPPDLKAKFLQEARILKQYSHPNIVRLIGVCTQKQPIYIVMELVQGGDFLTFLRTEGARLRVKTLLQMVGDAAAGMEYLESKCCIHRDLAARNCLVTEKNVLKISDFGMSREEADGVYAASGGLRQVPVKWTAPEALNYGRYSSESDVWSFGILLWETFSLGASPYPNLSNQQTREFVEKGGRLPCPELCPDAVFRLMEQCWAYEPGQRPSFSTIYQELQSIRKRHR

For the molecule `O=C(Cc1ccc(NC(=O)c2cccc(Cl)c2)cc1)NCc1ccccc1` [Compound 4e, N-(4-(2-(benzylamino)-2-oxoethyl)phenyl)-3-chlorobenzamide], at CSK, the “Mean Final Score” value worked out at 1.9356, the “Mean Kinase Statistic” value is -0.5346, the “Mean Significance Score” value is reported as 1.2107 and the “Mean Specificity Score” value stood at 0.7249. Also, at Fes, the “Mean Final Score” value worked out at 2.3241, the “Mean Kinase Statistic” value is on record as -0.6958, the “Mean Significance Score” value was 1.2140 and the “Mean Specificity Score” value stood at 1.1101. For the same molecule, on Srm, the “Mean Final Score” value is 2.2692, the “Mean Kinase Statistic” value is -0.5863, the “Mean Significance Score” value is listed as 1.1518 and the “Mean Specificity Score” value came out at 1.1174. Moreover, in the test on CREB (HL60 cell lysate, treated), the “phosphokinase signal after 4e exposure, CREB” value was determined as 682.43. Besides, the “Change in Signal, CREB” value in the test on CREB (treated vs untreated HL60) is listed as 42.08. The “% Change, CREB” value in the test with CREB (treated vs untreated HL60, Ser133) is 6.57% and ~ 6%. For the same molecule, in the test with Ron, the “Mean Final Score” value is reported as 1.8398, the “Mean Kinase Statistic” value is recorded as -0.6967, the “Mean Significance Score” value amounted to 1.0254 and the “Mean Specificity Score” value stood at 0.8144. Moreover, in the test on purified bovine tubulin, the “effect on tubulin polymerization” value is recorded as “did not affect the tubulin polymerization”.

Values taken from PMC9166630, “SAR Probing of KX2-391 Provided Analogues With Juxtaposed Activity Profile Against Major Oncogenic Kinases” (Frontiers in Oncology, 2022).
